The structures appear in SMILES notation.

For orientation: EC50 means the concentration at which the effect is half-maximal. Read a low EC50 as an effect from little substance.

The target of this experiment is human GPR119 (Homo sapiens (Human), UniProt Q8TDV5). The experiment is described as follows: AlphaScreen cAMP assay in MIN6 cells stably transfected with human GPR119. The following applies: Min-6/hGPR119 cells, 45 min incubation at room temperature. The experiment is classed as cell-based. As for the experimental part: The compounds of formula I according to the invention modulate the activity of the G-protein-coupled receptor GPR119. The effect of the compounds on the activation of GPR119 and on the stimulation of intracellular cAMP concentration is determined using the AlphaScreen cAMP Assay Kit (Cat. No. #6760625R) made by PerkinElmer.
Chain of human GPR119 (Q8TDV5 whole entry): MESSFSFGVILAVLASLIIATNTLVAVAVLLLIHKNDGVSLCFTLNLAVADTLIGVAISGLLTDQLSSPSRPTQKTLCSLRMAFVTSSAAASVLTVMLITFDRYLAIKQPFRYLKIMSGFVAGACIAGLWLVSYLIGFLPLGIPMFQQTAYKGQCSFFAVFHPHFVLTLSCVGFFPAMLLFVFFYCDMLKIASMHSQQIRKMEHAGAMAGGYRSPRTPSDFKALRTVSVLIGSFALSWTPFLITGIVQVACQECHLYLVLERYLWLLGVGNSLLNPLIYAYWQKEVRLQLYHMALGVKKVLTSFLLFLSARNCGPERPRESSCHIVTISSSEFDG
MIN6 cells [Miyazaki J et al. Endocrinology. 1990 July; 127(1):126-32] are stably transfected with an expression vector for human GPR119 cDNA (Acc. No. NP_848566). Min-6/hGPR119 cells are cultured in DMEM, 10% FBS, 50 μM β-mercaptoethanol, 0.3 mg/mL Geniticin, 2 mM GlutaMAX at 37° C. 5% CO2. For the assay, the cells are seeded in Optiplates (white, 384-well, 160W-barcoded, TC, sterile with lid, Cat. No. #6007688 (Perkin Elmer); 10000 cells/well; 50 μl). The plates covered with lids are then incubated for 24 hours at 37° C./5% CO2. After the medium is aspirated from the wells completely, 10 μl of the test compound are added, the compounds are diluted using stimulating buffer (140 mM NaCl, 3.6 mM KCl, 0.5 mM NaH2PO4, 0.5 mM MgSO4, 1.5 mM CaCl2, 10 mM Hepes, 5 mM NaHCO3; pH 7.4. 0.5 mM IBMX and 0.1% BSA, the final DMSO concentration is 1%). After 45 minutes incubation at room temperature (approx. 20° C.), the cAMP concentrations are determined using the AlphaScreen cAMP Assay Kit (Cat. No. #6760625R from PerkinElmer).
In general terms: Alpha assays give light when donor and acceptor beads are brought close together.
Compound `CC(C)(C)OC(=O)N1CC[C@H](N(C(=O)c2ccc(-c3cnco3)cc2)C2CC2)[C@@H](F)C1` (single isomer, unassigned) [Example 38] showed a concentration giving a half-maximal response (EC50) of 174 nM.
The value for `CC(C)(C)OC(=O)N1CC[C@@H](N(C(=O)c2ccc(-c3cnco3)cc2)C2CC2)[C@H](F)C1` (single isomer, unassigned) [Example 39] was 634 nM; that for `CC(C)(C)OC(=O)N1CC[C@H](N(C(=O)c2ccc(-c3cnco3)cc2)C2CC2)[C@H](F)C1` (single isomer, unassigned) [Example 40] was 2 nM; that for `CC(C)(C)OC(=O)N1CC[C@@H](N(C(=O)c2ccc(-c3cnco3)cc2)C2CC2)[C@@H](F)C1` (single isomer, unassigned) [Example 41] was 30 nM.
For the compound `C[C@@H]1CN(C(=O)OC(C)(C)C)CC[C@@H]1N(C(=O)c1ccc(-c2cnco2)cc1)C1CC1` (single isomer, unassigned) [Example 46], it took 7 nM to reach a half-maximal effect (EC50).
In the case of `C[C@H]1CN(C(=O)OC(C)(C)C)CC[C@H]1N(C(=O)c1ccc(-c2cnco2)cc1)C1CC1` (single isomer, unassigned) [Example 47] it was 855 nM; in that of `CC1CC(N(C(=O)c2ccc(-c3cnco3)cc2)C2CC2)CCN1C(=O)OC(C)(C)C` (stereo not drawn) [Example 1, 4-[Cyclopropyl-(4-oxazol-5-yl-benzoyl)-amino]-2-methyl-piperidine-1-carboxylic acid tert-butyl ester], 157 nM; in that of `CC1CN(C(=O)OC(C)(C)C)CCC1N(C(=O)c1ccc(-c2cnco2)cc1)C1CC1` (stereo not drawn) [Example 2, 4-[Cyclopropyl-(4-oxazol-5-yl-benzoyl)-amino]-3-methyl-piperidine-1-carboxylic acid tert-butyl ester], 15 nM.
The value for `C=C(C)OC(=O)N1CCC(N(C(=O)c2ccc(-c3cnco3)cc2)C2CC2)CC1` [Example 3, 4-[Cyclopropyl-(4-oxazol-5-yl-benzoyl)-amino]-piperidine-1-carboxylic acid isopropenyl ester] was 124 nM; that for `CC(C)(C)OC(=O)N1CCC(N(C(=O)c2ccc(-c3ocnc3I)cc2)C2CC2)CC1` [Example 4, 4-{Cyclopropyl-[4-(4-iodo-oxazol-5-yl)-benzoyl]-amino}-piperidine-1-carboxylic acid tert-butyl ester] was 816 nM; that for `Cc1nc(-c2ccc(C(=O)N(C3CC3)C3CCN(C(=O)OC(C)(C)C)CC3)cc2)co1` [Example 5, 4-{Cyclopropyl-[4-(2-methyl-oxazol-4-yl)-benzoyl]-amino}-piperidine-1-carboxylic acid tert-butyl ester] was 884 nM.
Take `CC(C)(C)OC(=O)N1CCC(N(C(=O)c2ccc(-c3cncs3)cc2)C2CC2)CC1` [Example 6, 4-[Cyclopropyl-(4-thiazol-5-yl-benzoyl)-amino]-piperidine-1-carboxylic acid tert-butyl ester]: the EC50 came out at 32 nM.
In the case of `CC(C)(C)OC(=O)N1CCC(N(C(=O)c2ccc(-c3cnco3)c([N+](=O)[O-])c2)C2CC2)CC1` [Example 7, 4-[Cyclopropyl-(3-nitro-4-oxazol-5-yl-benzoyl)-amino]-piperidine-1-carboxylic acid tert-butyl ester] it was 78 nM.
As for `CC(C)(C)OC(=O)N1CCC(N(C(=O)c2ccc(-c3cnco3)c(N)c2)C2CC2)CC1` [Example 8, 4-[(3-Amino-4-oxazol-5-yl-benzoyl)-cyclopropyl-amino]-piperidine-1-carboxylic acid tert-butyl ester], the concentration giving a half-maximal response (EC50) was 169 nM. This EC50 lies about 2.2-fold higher than the previous one.
`COc1cc(C(=O)N(C2CC2)C2CCN(C(=O)OC(C)(C)C)CC2)ccc1-c1cnco1` [Example 9, 4-[Cyclopropyl-(3-methoxy-4-oxazol-5-yl-benzoyl)-amino]-piperidine-1-carboxylic acid tert-butyl ester] came in with a 50% effective concentration (EC50) of 650 nM.
On to `Cc1ncoc1-c1ccc(C(=O)N(C2CC2)C2CCN(C(=O)OC(C)(C)C)CC2)cc1` [Example 10, 4-{Cyclopropyl-[4-(4-methyl-oxazol-5-yl)-benzoyl]-amino}-piperidine-1-carboxylic acid tert-butyl ester], for which the concentration giving a half-maximal response (EC50) was 75 nM.
In the case of `O=C(OC1CCOCC1)N1CCC(N(C(=O)c2ccc(-c3cnco3)cc2)C2CC2)CC1` [Example 11, 4-[Cyclopropyl-(4-oxazol-5-yl-benzoyl)-amino]-piperidine-1-carboxylic acid tetrahydro-pyran-4-yl ester] it was 516 nM; in that of `CC(C)(C)OC(=O)N1CCC(N(C(=O)c2ccc(-c3cn[nH]c3)cc2)C2CC2)CC1` [Example 12, 4-{Cyclopropyl-[4-(1H-pyrazol-4-yl)-benzoyl]-amino}-piperidine-1-carboxylic acid tert-butyl ester], 240 nM.
The value for `Cn1cc(-c2ccc(C(=O)N(C3CC3)C3CCN(C(=O)OC(C)(C)C)CC3)cc2)cn1` [Example 13] was 423 nM; that for `O=C(OCC1CCOCC1)N1CCC(N(C(=O)c2ccc(-c3cnco3)cc2)C2CC2)CC1` [Example 14, 4-[Cyclopropyl-(4-oxazol-5-yl-benzoyl)-amino]-piperidine-1-carboxylic acid tetrahydro-pyran-4-ylmethyl ester] was 1080 nM.
As for `CC(C)(O)COC(=O)N1CCC(N(C(=O)c2ccc(-c3cnco3)cc2)C2CC2)CC1` [Example 15, 4-[Cyclopropyl-(4-oxazol-5-yl-benzoyl)-amino]-piperidine-1-carboxylic acid 2-hydroxy-2-methyl-propyl ester], the concentration giving a half-maximal response (EC50) came to 4460 nM.
In the case of `Cc1ccc(-c2ccc(C(=O)N(C3CC3)C3CCN(C(=O)OC(C)(C)C)CC3)cc2)nn1` [Example 16, 4-{Cyclopropyl-[4-(6-methyl-pyridazin-3-yl)-benzoyl]-amino}-piperidine-1-carboxylic acid tert-butyl ester] it was 76 nM; in that of `Cn1cnc(-c2ccc(C(=O)N(C3CC3)C3CCN(C(=O)OC(C)(C)C)CC3)cc2)n1` [Example 17, 4-{Cyclopropyl-[4-(1-methyl-1H-[1,2,4]triazol-3-yl)-benzoyl]-amino}-piperidine-1-carboxylic acid tert-butyl ester], 2220 nM; in that of `Cn1ncnc1-c1ccc(C(=O)N(C2CC2)C2CCN(C(=O)OC(C)(C)C)CC2)cc1` [Example 18, 4-{Cyclopropyl-[4-(2-methyl-2H-[1,2,4]triazol-3-yl)-benzoyl]-amino}-piperidine-1-carboxylic acid tert-butyl ester], 1000 nM.
`CC1(OC(=O)N2CCC(N(C(=O)c3ccc(-c4ccc(S(C)(=O)=O)cn4)cc3)C3CC3)CC2)CC1` [Example 19, 4-{Cyclopropyl-[4-(5-methanesulfonyl-pyridin-2-yl)-benzoyl]-amino}-piperidine-1-carboxylic acid 1-methyl-cyclopropyl ester] had an EC50 of 1770 nM.
In the case of `CC1(OC(=O)N2CCC(N(C(=O)c3ccc(-c4cnco4)cc3)C3CC3)CC2)CC1` [Example 20, 4-[Cyclopropyl-(4-oxazol-5-yl-benzoyl)-amino]-piperidine-1-carboxylic acid 1-methyl-cyclopropyl ester], the concentration for a half-maximal effect (EC50) is 52 nM. Compared with the last compound, the EC50 is about 34-fold lower.
In turn, `CC(C)(C)OC(=O)N1CCC(N(C(=O)c2ccc(-c3ccc(S(C)(=O)=O)cn3)cc2)C2CC2)CC1` [Example 21, 4-{Cyclopropyl-[4-(5-methanesulfonyl-pyridin-2-yl)-benzoyl]-amino}-piperidine-1-carboxylic acid tert-butyl ester] came in with an EC50 of 74 nM.

Values taken from patent US9469631B2 (Boehringer Ingelheim International GmbH, priority 2012, dated 2016).
